# In patent publication US12668586B2, “AhR inhibitor, use thereof, and preparation method therefor” (CHONGQING PHARSCIN INNOBIO CO., LTD., priority 2021, dated 2026):
# Molecular target: T1, AhR (Homo sapiens, UniProt P35869)
# T1 sequence (P35869 11-848): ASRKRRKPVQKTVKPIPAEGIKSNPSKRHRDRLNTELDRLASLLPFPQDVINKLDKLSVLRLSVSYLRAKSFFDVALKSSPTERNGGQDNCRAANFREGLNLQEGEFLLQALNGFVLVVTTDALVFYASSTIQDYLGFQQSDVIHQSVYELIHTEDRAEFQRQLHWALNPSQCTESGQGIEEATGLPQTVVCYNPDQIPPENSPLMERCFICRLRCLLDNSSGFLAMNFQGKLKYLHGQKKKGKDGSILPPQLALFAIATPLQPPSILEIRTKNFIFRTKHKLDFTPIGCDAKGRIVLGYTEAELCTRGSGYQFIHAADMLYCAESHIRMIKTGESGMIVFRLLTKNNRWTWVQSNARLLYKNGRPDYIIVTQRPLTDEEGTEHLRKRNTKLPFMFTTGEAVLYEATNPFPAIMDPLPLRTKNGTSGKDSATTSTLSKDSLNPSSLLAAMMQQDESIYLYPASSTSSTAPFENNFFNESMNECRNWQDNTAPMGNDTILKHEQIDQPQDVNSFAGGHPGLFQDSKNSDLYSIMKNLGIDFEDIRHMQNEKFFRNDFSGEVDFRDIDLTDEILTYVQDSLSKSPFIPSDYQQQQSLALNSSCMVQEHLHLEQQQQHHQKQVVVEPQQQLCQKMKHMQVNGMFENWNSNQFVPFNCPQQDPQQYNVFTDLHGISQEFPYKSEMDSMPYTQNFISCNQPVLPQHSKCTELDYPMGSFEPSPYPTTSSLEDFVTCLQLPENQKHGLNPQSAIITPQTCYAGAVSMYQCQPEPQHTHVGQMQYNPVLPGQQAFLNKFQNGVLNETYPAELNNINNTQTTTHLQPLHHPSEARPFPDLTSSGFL
# Assay: AhR inhibitory activity experiment, in vitro assay 1: HepG2-Lucia AhR cells, Lucia luciferase reporter (QUANTI-Luc)
# Format: cell-based
# Details: 24 hours incubation at 37° C., Lucia luciferase in supernatant, read-out: AhR inhibitory activity C50
# Procedure: Test Example: AhR Inhibitory Activity Experiment
# When QUANTI-Luc™ (InvivoGen Company) testing reagents are used, AhR gene signaling pathways can be studied by monitoring the activity of Lucia luciferase in the cell culture supernatant.
# In Vitro Assay 1: Assay on Inhibitory Activity in Human Cell Lines
# Adherent cell layers of HepG2-Lucia™ AhR cells in a logarithmic growth phase were washed with PBS, and then the cells were isolated with trypsin. The isolated cells were centrifuged at 1000 RPM for 5 minutes, the supernatant was removed, and the cells were re-suspended with a test medium by 1.25×10^5 cells/ml.
# 20,000 cells were added to each well of a 96-well plate, and the 96-well plate was placed in a CO2 incubator to incubate the cells at 37° C. for 24 hours in the absence (negative control) or presence of test compounds with gradient increasing concentrations (typical dilutions: 169 pmol/L, 0.5 nmol/L, 1.5 nmol/L; 4.6 nmol/L, 13.7 nmol/L, 41 nmol/L, 123 nmol/L, 370 nmol/L, 1.1 μmol/L, 3.3 μmol/L and 10 μmol/L, in triplicate).
# The 20 μl/well cell supernatant was transferred to a black 96-well plate, a 50 μL/well QUANTI-Luc™ solution was added, and the activity of Lucia luciferase was measured on a multifunctional ELISA reader Spark 10 M (Tecan Company) through a QUANTI-Luc™ luciferase assay system.
# Experimental results are shown in Table 1, wherein for IC50 values, “++++” represents IC50<0.05 μM; “+++” represents IC50 between 0.05 μM and 0.2 μM; “++” represents IC50 between 0.2 μM and 1.0 μM; and “+” represents IC50>1.0 μM.
row,Compound,IC50 [nM]
1,"O=C(N[C@H]1CCc2ncccc21)c1cc(-c2ccc(OC(F)(F)F)cc2)nc(-c2cccnc2)n1 [Compound 27, (S)-6-(4-trifluoromethoxyphenyl)-N-((S)-6,7-dihydro-5H-cyclopentano[B]pyridin-5-yl)-2-(3-pyridyl)pyrimidine-4-formamide]",< 50
2,"Cn1cc(-c2nc(C(=O)N[C@H]3CCc4cc(C#N)ccc43)cc(-c3ccc(Cl)cc3)n2)cn1 [Compound 28, (S)-6-(4-chlorophenyl)-N-(5-cyano-(2,3-dihydro)-(−)-1-yl-2-indene)-2-(1-methyl-1H-pyrazol-4-yl)pyrimidine-4-formamide]",< 50
3,"COc1ccc([C@H](C)NC(=O)c2cc(-c3ccc(Cl)cc3)nc(-c3cnn(C)c3)n2)cc1Cl [Compound 29, (S)-6-(4-chlorophenyl)-N-(1-(3-chloro-4-methoxyphenyl)ethyl)-2-(1-methyl-1H-pyrazol-4-yl)pyrimidine-4-formamide]",< 50
4,"COc1cc([C@H](C)NC(=O)c2cc(-c3ccc(Cl)cc3)nc(-c3cnn(C)c3)n2)ccc1F [Compound 30, (S)-6-(4-chlorophenyl)-N-(1-(3-methoxy-4-fluorophenyl)ethyl)-2-(1-methyl-1H-pyrazol-4-yl)pyrimidine-4-formamide]",< 50
5,"C[C@H](NC(=O)c1cc(-c2ccc(Cl)cc2)nc(-c2cnn(C)c2)n1)c1ccc(F)c(Cl)c1 [Compound 31, (S)-6-(4-chlorophenyl)-N-(1-(3-chloro-4-fluorophenyl)ethyl)-2-(1-methyl-1H-pyrazol-4-yl)pyrimidine-4-formamide]",< 50
6,"C[C@H](NC(=O)c1cc(-c2ccc(C(F)(F)F)cc2)nc(-c2cnn(C)c2)n1)c1ccc(F)c(F)c1 [Compound 32, (S)-6-(4-trifluoromethylphenyl)-N-(1-(3,4-difluorophenyl)ethyl)-2-(1-methyl-1H-pyrazol-4-yl)pyrimidine-4-formamide]",< 50
7,"C[C@H](NC(=O)c1cc(-c2ccc(C(F)(F)F)cc2)nc(-c2cnn(C)c2)n1)c1ccnc(F)c1 [Compound 33, (S)-6-(4-trifluoromethylphenyl)-N-(1-(2-fluoro-4-pyridine)ethyl)-2-(1-methyl-1H-pyrazol-4-yl)pyrimidine-4-formamide]",< 50
8,"C[C@H](NC(=O)c1cc(-c2ccc(OC(F)(F)F)cc2)nc(-c2cnn(C)c2)n1)c1ccnc(F)c1 [Compound 34, (S)-6-(4-trifluoromethoxyphenyl)-N-(1-(2-fluoro-4-pyridine)ethyl)-2-(1-methyl-1H-pyrazol-4-yl)pyrimidine-4-formamide]",< 50
9,"C[C@H](NC(=O)c1cc(-c2ccc(Cl)cc2)nc(-c2cccnc2)n1)c1ccnc(F)c1 [Compound 35, (S)-6-(4-chlorophenyl)-N-(1-(2-fluoro-4-pyridine)ethyl)-2-(3-pyridin-4-yl)pyrimidine-4-formamide]",< 50
10,"C[C@H](NC(=O)c1cc(-c2ccc(Cl)cc2)nc(-c2cnc(Cl)nc2)n1)c1ccnc(F)c1 [Compound 36, (S)-6-(4-chlorophenyl)-N-(1-(2-fluoro-4-pyridine)ethyl)-2-(2-chloropyrimidin-5-yl)pyrimidine-4-formamide]",> 1000
11,"C[C@H](NC(=O)c1cc(-c2ccc(Cl)cc2)nc(-c2ccnc(N)c2)n1)c1ccnc(F)c1 [Compound 37, (S)-6-(4-chlorophenyl)-N-(1-(2-fluoro-4-pyridine)ethyl)-2-(2-aminopyridin-4-yl)pyrimidine-4-formamide]",< 50
12,"C[C@H](NC(=O)c1cc(-c2ccc(Cl)cc2)nc(-c2ccnc(F)c2)n1)c1ccnc(F)c1 [Compound 38, (S)-6-(4-chlorophenyl)-N-(1-(2-fluoro-4-pyridine)ethyl)-2-(2-fluoropyridin-4-yl)pyrimidine-4-formamide]",< 50
13,"C[C@H](NC(=O)c1cc(-c2ccc(Cl)cc2)nc(-c2cnn(C3CC3)c2)n1)c1ccnc(F)c1 [Compound 39, (S)-6-(4-chlorophenyl)-N-(1-(2-fluoro-4-pyridine)ethyl)-2-(1-cyclopropylpyrazol-4-yl)pyrimidine-4-formamide]",> 1000
14,"C[C@H](NC(=O)c1cc(-c2ccc(Cl)cc2)nc(-c2cnn(C)c2)n1)c1ccc(F)c(C#N)c1 [Compound 40, (S)-6-(4-chlorophenyl)-N-(1-(3-cyano-4-fluorophenyl)ethyl)-2-(1-methyl-1H-pyrazol-4-yl)pyrimidine-4-formamide]",< 50
15,"Cn1cc(-c2nc(C(=O)Nc3n[nH]c4ccccc34)cc(-c3ccc(Cl)cc3)n2)cn1 [Compound 41, 6-(4-chlorophenyl)-N-(1H-indazol-3-yl)-2-(1-methyl-1H-pyrazol-4-yl)pyrimidine-4-formamide]",> 1000
16,"Cn1cc(-c2nc(C(=O)NC3(C)CCN(C(=O)C4CC4)CC3)cc(-c3ccc(Cl)cc3)n2)cn1 [Compound 43, 6-(4-chlorophenyl)-N-((4-yl-4-methylpiperidin-1-yl)(cyclopropyl)ketone)-2-(1-methyl-1H-pyrazol-4-yl)pyrimidine-4-formamide]",< 50
17,"Cn1cc(-c2nc(C(=O)NC3(C)CCN(CC(F)(F)F)CC3)cc(-c3ccc(Cl)cc3)n2)cn1 [Compound 44, 6-(4-chlorophenyl)-N-((4-yl-4-methylpiperidin-1-yl)trifluoroethyl)-2-(1-methyl-1H-pyrazol-4-yl)pyrimidine-4-formamide]",< 50
18,"Cn1cc(-c2nc(C(=O)NC3(C)CCN(CC(N)=O)CC3)cc(-c3ccc(Cl)cc3)n2)cn1 [Compound 45, 6-(4-chlorophenyl)-N-(2-(4-yl-4-methylpiperidin-1-yl)acetamide)-2-(1-methyl-1H-pyrazol-4-yl)pyrimidine-4-formamide]",< 50
19,"Cn1cc(-c2nc(C(=O)NC3(C)CCN(CC#N)CC3)cc(-c3ccc(Cl)cc3)n2)cn1 [Compound 46, 6-(4-chlorophenyl)-N-(1-(cyanomethyl)-4-methylpiperidin-4-yl)-2-(1-methyl-1H-pyrazol-4-yl)pyrimidine-4-formamide]",< 50
20,"C[C@H](NC(=O)c1cc(-c2ccc(F)cc2)nc(-c2cnn(C)c2)n1)c1ccnc(F)c1 [Compound 47, (S)-6-(4-fluorophenyl)-N-(1-(2-fluoro-4-pyridine)ethyl)-2-(1-methylpyrazol-4-yl)pyrimidine-4-formamide]",50 to 200
21,"C[C@H](NC(=O)c1cc(-c2cnn(C)c2)nc(-c2cnn(C)c2)n1)c1ccnc(F)c1 [Compound 48, (S)-6-(1-methyl-1H-pyrazol-4-yl)-N-(1-(2-fluoro-4-pyridine)ethyl)-2-(1-methyl-1H-pyrazol-4-yl)pyrimidine-4-formamide]",> 1000
22,"C[C@H](NC(=O)c1cc(-c2ccnc(F)c2)nc(-c2cnn(C)c2)n1)c1ccnc(F)c1 [Compound 49, (S)-6-(2-fluoro-4-pyridine)-N-(1-(2-fluoro-4-pyridine)ethyl)-2-(1-methyl-1H-pyrazol-4-yl)pyrimidine-4-formamide]",> 1000
23,"COc1ccc(-c2nc(C(=O)N[C@@H](C)c3ccnc(F)c3)cc(-c3ccc(Cl)cc3)n2)cc1 [Compound 50, (S)-6-(4-chlorophenyl)-N-(1-(2-fluoro-4-pyridine)ethyl)-2-(p-methoxyphenyl)pyrimidine-4-formamide]",> 1000
24,"Cn1cc(-c2nc(C(=O)NC3(c4ccc(Cl)cc4)CC3)cc(-c3ccc(Cl)cc3)n2)cn1 [Compound 51, (S)-6-(4-chlorophenyl)-N-(1-(4-chlorophenyl)cyclopropylamine)-2-(1-methyl-1H-pyrazol-4-yl)pyrimidine-4-formamide]",< 50
25,"CNC(=O)c1ccc([C@H](C)NC(=O)c2cc(-c3ccc(Cl)cc3)nc(-c3cnn(C)c3)n2)cc1F [Compound 52, (S)-6-(4-chlorophenyl)-N-(1-(3-fluoro-4-(methylaminoformyl)phenyl)ethyl)-2-(1-methyl-1H-pyrazol-4-yl)pyrimidine-4-formamide]",< 50
26,CC(=O)Nc1ccc([C@H](C)NC(=O)c2cc(-c3ccc(Cl)cc3)nc(-c3cnn(C)c3)n2)cc1F [Compound 53],< 50
